The target of assay [1] is T1, human GR (Homo sapiens, UniProt P04150).
T1 sequence (P04150 1-777): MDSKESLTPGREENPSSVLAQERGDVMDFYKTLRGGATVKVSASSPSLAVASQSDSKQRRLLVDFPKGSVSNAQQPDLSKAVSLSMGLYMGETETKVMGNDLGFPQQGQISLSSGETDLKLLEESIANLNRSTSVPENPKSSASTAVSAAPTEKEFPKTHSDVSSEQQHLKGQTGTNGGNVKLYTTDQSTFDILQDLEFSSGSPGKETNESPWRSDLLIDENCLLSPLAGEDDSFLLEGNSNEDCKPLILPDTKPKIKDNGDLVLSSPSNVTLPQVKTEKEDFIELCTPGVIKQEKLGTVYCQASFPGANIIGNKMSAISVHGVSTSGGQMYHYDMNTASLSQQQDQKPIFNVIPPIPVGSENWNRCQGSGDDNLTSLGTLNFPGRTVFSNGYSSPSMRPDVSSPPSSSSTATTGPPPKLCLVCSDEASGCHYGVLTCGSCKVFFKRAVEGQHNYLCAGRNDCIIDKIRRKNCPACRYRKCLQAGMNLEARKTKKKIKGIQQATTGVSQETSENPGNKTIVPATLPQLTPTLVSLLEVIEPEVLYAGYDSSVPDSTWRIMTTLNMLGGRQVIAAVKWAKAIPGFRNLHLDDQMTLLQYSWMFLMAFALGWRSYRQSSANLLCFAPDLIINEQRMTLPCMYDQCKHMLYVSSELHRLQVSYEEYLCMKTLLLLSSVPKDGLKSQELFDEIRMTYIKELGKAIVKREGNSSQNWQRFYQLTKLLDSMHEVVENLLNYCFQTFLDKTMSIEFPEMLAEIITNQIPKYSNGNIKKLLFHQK
In words: Trans-Activation Modulation of Glucocorticoid Receptor (GRAMMER), MMTV-LUC reporter gene. In kind it is cell-based. The following applies: for Emax: A549; for EC50: A549 cells, IP = inflection point. More on the design: endogenous in cells. In general terms: Reporter assays use an easily measured gene product as a stand-in for the process of interest.

In assay [2] the target is T1, human GR. Briefly: Transrepression Assay (GITAR), TNFα-β-lactamase reporter gene in U937 cells. Format: cell-based. More on the design: U937 cells contain an endogenous glucocorticoid receptor (GR); endogenous in cells; host or cells: U937 cells stably transfected with the TNF-α promoter/β-lactamase reporter only. To be noted: for EC50: IP = inflection point; for GITAR > GRAMM % SEP: separation of GITAR Emax over GRAMMER Emax; for Emax: U-937. In short, it runs like this: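 Reporter readout used CCF2-AM loading for 70–90 min at room temperature after overnight (~18 h, 37 °C) PMA (5 ng/ml final) and LPS (100 ng/ml final) stimulation of compound-treated (30–45 min) TNFα-β-lactamase U937 cells expressing native GR. Activity was normalised to 100 nM dexamethasone repression.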

Setting [3] is: read-out: Transactivation A549 Cells GRAMMER Emax (%).
Setting [4] is: Table 1, read-out: Transactivation A549 Cells GRAMMER IP.
Setting [5] is: Table 1, U937 cells, read-out: Transrepression U937 Cells GITAR IP.
Where [6] appears, read: 100 nM dexamethasone = 100% activity, read-out: maximal activity in the transrepression assay.
The mark [7] stands for this setting: Table 1, U937 cells, activity repressed by 100 nM dexamethasone = 100%, read-out: Transrepression U937 Cells GITAR Emax (%).
The mark [8] stands for this setting: read-out: Transactiviation A549 Cells GRAMMER Emax (%).
Where [9] appears, read: Table 2, read-out: Transactiviation A549 Cells GRAMMER IP.
The mark [10] stands for this setting: Table 2, U937 cells, read-out: Transactiviation U937 Cells GITAR IP.
Setting [11] is: Table 2, U937 cells, activity repressed by 100 nM dexamethasone = 100%, read-out: Transactiviation U937 Cells GITAR Emax (%).

Regarding `CC(C)[C@@H](C)NC(=O)c1c(F)cccc1CC[C@]1(O)CCC2=Cc3c(cnn3-c3ccc(F)cc3)C[C@@]21C` [Example 48, N-[(1R)-1,2-dimethylpropyl]-2-fluoro-6-{2-[(4αS,5R)-1-(4-fluorophenyl)-5-hydroxy-4α-methyl-1,4,4α,5,6,7-hexahydrocyclopenta[f]indazol-5-yl]ethyl}benzamide], the values for the Emax on human GR [1] (setting [3]), on human GR [2] (setting [6]) and on human GR [2] (setting [7]) were 13%, 5 to 100% and 72%, respectively. Besides, the EC50 on human GR [1] (setting [4]) is 94 nM; on human GR [2] (setting [5]), 198 nM. Besides, the “GITAR > GRAMM % SEP” value on human GR [2] (Table 1) turned out to be 59%.
Regarding `CCCNC(=O)c1c(F)cccc1CC[C@]1(O)CCC2=Cc3c(cnn3-c3ccc(F)cc3)C[C@@]21C` [Example 49, 2-fluoro-6-{2-[(4αS,5R)-1-(4-fluorophenyl)-5-hydroxy-4α-methyl-1,4,4α,5,6,7-hexahydrocyclopenta[f]indazol-5-yl]ethyl}-N-propylbenzamide], the Emax on human GR [1] (setting [3]) was 25%; at human GR [2] (setting [6]), 5 to 100%; on human GR [2] (setting [7]), 72%. Further, the EC50 was found to be 26 nM on human GR [1] (setting [4]) and 30 nM at human GR [2] (setting [5]). Moreover, the “GITAR > GRAMM % SEP” value at human GR [2] (Table 1) was found to be 47%.
On to `CCNC(=O)c1ccccc1CC[C@]1(O)CCC2=Cc3c(cnn3-c3ccc(F)c(F)c3)C[C@@]21C` [Example 51, 2-{2-[(4αS,5R)-1-(3,4-difluorophenyl)-5-hydroxy-4α-methyl-1,4,4α,5,6,7-hexahydrocyclopenta[f]indazol-5-yl]ethyl}-N-ethylbenzamide], for which the figures for the Emax on human GR [1] (setting [3]), at human GR [2] (setting [6]) and at human GR [2] (setting [7]) were 30%, 5 to 100% and 73%, respectively. Also, the EC50 at human GR [1] (setting [4]) came to 164 nM; at human GR [2] (setting [5]), 193 nM. The “GITAR > GRAMM % SEP” value on human GR [2] (Table 1) is on record as 42%.
With `COC(=O)C(C)(C)NC(=O)c1ccccc1CC[C@]1(O)CCC2=Cc3c(cnn3-c3ccc(F)cc3)C[C@@]21C` [Example 52, methyl N-(2-{2-[(4αS,5R)-1-(4-fluorophenyl)-5-hydroxy-4α-methyl-1,4,4α,5,6,7-hexahydrocyclopenta[f]indazol-5-yl]ethyl}benzoyl)-2-methylalaninate], the Emax is 45% at human GR [1] (setting [3]), 5 to 100% on human GR [2] (setting [6]) and 74% at human GR [2] (setting [7]). The results for the EC50 on human GR [1] (setting [4]) and at human GR [2] (setting [5]) were 21 nM and 154 nM, respectively. Besides, the “GITAR > GRAMM % SEP” value at human GR [2] (Table 1) is listed as 29%.
For `CC(C)(C)CNC(=O)c1c(F)cccc1CC[C@]1(O)CCC2=Cc3c(cnn3-c3ccc(F)cc3)C[C@@]21C` [Example 55, N-(2,2-dimethylpropyl)-2-fluoro-6-{2-[(4αS,5R)-1-(4-fluorophenyl)-5-hydroxy-4α-methyl-1,4,4α,5,6,7-hexahydrocyclopenta[f]indazol-5-yl]ethyl}benzamide], the Emax at human GR [1] (setting [3]) is 23%; on human GR [2] (setting [6]) it was 5 to 100%; on human GR [2] (setting [7]), 76%. Further, the values for the EC50 at human GR [1] (setting [4]) and on human GR [2] (setting [5]) were 173 nM and 187 nM, respectively. The “GITAR > GRAMM % SEP” value on human GR [2] (Table 1) came to 53%.
`C=CCNC(=O)c1c(F)cccc1CC[C@]1(O)CCC2=Cc3c(cnn3-c3ccc(F)cc3)C[C@@]21C` [Example 57, N-allyl-2-fluoro-6-{2-[(4αS,5R)-1-(4-fluorophenyl)-5-hydroxy-4α-methyl-1,4,4α,5,6,7-hexahydrocyclopenta[f]indazol-5-yl]ethyl}benzamide]: the figures for the Emax at human GR [1] (setting [3]), at human GR [2] (setting [6]) and on human GR [2] (setting [7]) were 37%, 5 to 100% and 77%, respectively. In addition, the EC50 came out at 24 nM at human GR [1] (setting [4]) and 30 nM at human GR [2] (setting [5]). Also, the “GITAR > GRAMM % SEP” value at human GR [2] (Table 1) is 40%.
As to `COc1ccccc1CC[C@]1(O)CCC2=Cc3c(cnn3-c3ccc(F)cc3)C[C@@]21C` [Example 58 WO 2004/075840 A2, reference compound], the figures for the Emax on human GR [1] (setting [8]) and at human GR [2] (setting [11]) were 28% and 42%, respectively. Also, the EC50 was 397 nM on human GR [1] (setting [9]) and 642 nM on human GR [2] (setting [10]). Also, the “GITAR > GRAMM % SEP” value on human GR [2] (Table 2) came to 14%.
For the compound `CC(C)(C)NC(=O)c1c(F)cccc1CC[C@]1(O)CCC2=Cc3c(cnn3-c3ccc(F)cc3)C[C@@]21C` [Example 59, N-(tert-butyl)-2-fluoro-6-{2-[(4αS,5R)-1-(4-fluorophenyl)-5-hydroxy-4α-methyl-1,4,4α,5,6,7-hexahydrocyclopenta[f]indazol-5-yl]ethyl}benzamide], the Emax is 40% at human GR [1] (setting [3]), 5 to 100% at human GR [2] (setting [6]) and 77% at human GR [2] (setting [7]). The EC50 came to 108 nM on human GR [1] (setting [4]) and 95 nM at human GR [2] (setting [5]). Further, on human GR [2] (Table 1), the “GITAR > GRAMM % SEP” value was found to be 37%.
On to `CC(C)CNC(=O)c1c(F)cccc1CC[C@]1(O)CCC2=Cc3c(cnn3-c3ccc(F)cc3)C[C@@]21C` [Example 61, 2-fluoro-6-{2-[(4αS,5R)-1-(4-fluorophenyl)-5-hydroxy-4α-methyl-1,4,4α,5,6,7-hexahydrocyclopenta[f]indazol-5-yl]ethyl}-N-isobutylbenzamide], for which the Emax at human GR [1] (setting [3]) is 35%; at human GR [2] (setting [6]) it was 5 to 100%; at human GR [2] (setting [7]), 79%. For the same compound, the figures for the EC50 on human GR [1] (setting [4]) and at human GR [2] (setting [5]) were 86 nM and 83 nM, respectively. For the same compound, the “GITAR > GRAMM % SEP” value at human GR [2] (Table 1) was determined as 44%.
With `CC(C)(C)NC(=O)c1ccccc1CC[C@]1(O)CCC2=Cc3c(cnn3-c3ccc(F)cc3)C[C@@]21C` [Example 62, N-(tert-butyl)-2-{2-[(4αS,5R)-1-(4-fluorophenyl)-5-hydroxy-4α-methyl-1,4,4α,5,6,7-hexahydrocyclopenta[f]indazol-5-yl]ethyl}benzamide], the Emax on human GR [1] (setting [3]) was 23%; at human GR [2] (setting [6]), 5 to 100%; on human GR [2] (setting [7]), 79%. The EC50 at human GR [1] (setting [4]) was 212 nM; at human GR [2] (setting [5]), 246 nM. The “GITAR > GRAMM % SEP” value on human GR [2] (Table 1) came out at 56%.
In the case of `C[C@]12Cc3cnn(-c4ccc(F)cc4)c3C=C1CC[C@@]2(O)CCc1ccccc1F` [Example 70 WO 2004/075840 A2, reference compound], the figures for the Emax at human GR [1] (setting [8]) and at human GR [2] (setting [11]) were 144% and 83%, respectively. The EC50 on human GR [1] (setting [9]) was determined as 215 nM; at human GR [2] (setting [10]) it was 175 nM. Besides, on human GR [2] (Table 2), the “GITAR > GRAMM % SEP” value is −62%.
Take `CC(C)S(=O)(=O)NCc1c(F)cccc1CC[C@]1(O)CCC2=Cc3c(cnn3-c3ccc(F)cc3)C[C@@]21C` [Example 83, N-(2-fluoro-6-{2-[(4αS,5R)-1-(4-fluorophenyl)-5-hydroxy-4α-methyl-1,4,4α,5,6,7-hexahydrocyclopenta[f]indazol-5-yl]ethyl}benzyl)propane-2-sulfonamide]: the Emax is 21% on human GR [1] (setting [3]), 5 to 100% on human GR [2] (setting [6]) and 54% on human GR [2] (setting [7]). Besides, the EC50 at human GR [1] (setting [4]) is 70 nM; on human GR [2] (setting [5]) it was 94 nM. Further, the “GITAR > GRAMM % SEP” value at human GR [2] (Table 1) was determined as 33%.
Regarding `CCS(=O)(=O)NCc1c(F)cccc1CC[C@]1(O)CCC2=Cc3c(cnn3-c3ccc(F)cc3)C[C@@]21C` [Example 84, N-(2-fluoro-6-{2-[(4αS,5R)-1-(4-fluorophenyl)-5-hydroxy-4α-methyl-1,4,4α,5,6,7-hexahydrocyclopenta[f]indazol-5-yl]ethyl}benzyl)ethanesulfonamide], the Emax on human GR [1] (setting [3]) is 23%; at human GR [2] (setting [6]) it was 5 to 100%; at human GR [2] (setting [7]), 60%. Moreover, the EC50 on human GR [1] (setting [4]) came to 50 nM; on human GR [2] (setting [5]) it was 96 nM. In addition, the “GITAR > GRAMM % SEP” value at human GR [2] (Table 1) turned out to be 37%.
Consider `C[C@]12Cc3cnn(-c4ccc(F)cc4)c3C=C1CC[C@@]2(O)CCc1cccc(F)c1CNS(=O)(=O)C(Cl)Cl` [Example 85, 1,1-dichloro-N-(2-fluoro-6-{2-[(4αS,5R)-1-(4-fluorophenyl)-5-hydroxy-4α-methyl-1,4,4α,5,6,7-hexahydrocyclopenta[f]indazol-5-yl]ethyl}benzyl)methanesulfonamide], for which the Emax on human GR [1] (setting [3]) is 19%; at human GR [2] (setting [6]), 5 to 100%; at human GR [2] (setting [7]), 63%. Also, the EC50 was 94 nM at human GR [1] (setting [4]) and 182 nM at human GR [2] (setting [5]). For the same compound, on human GR [2] (Table 1), the “GITAR > GRAMM % SEP” value amounted to 44%.

For the origin of these results see patent US8119681B2, “2-[1-phenyl-5-hydroxy or methoxy-4alpha-methyl-hexahydrocyclopenta [ƒ]indazole-5-YL]ethyl phenyl derivatives as glucocorticoid receptor ligands” (Merck Sharp & Dohme Corp., priority 2006, dated 2012).
